We go through eight compounds from PMC12452389, “Arginine-Derived Cationic Surfactants Containing Phenylalanine and Tryptophan: Evaluation of Antifungal Activity, Biofilm Eradication, Cytotoxicity, and Ecotoxicity” (Journal of Xenobiotics, 2025).

Where a name gives a salt, the structure may show the parent alone. Read-outs that look alike come from different tables or passages of the source. Peptide text beside a SMILES is read from it. * marks the point of attachment. Lauroyl = CCCCCCCCCCCC(=O)*

Series [1] can be described thus: Cytotoxicity, MTT assay. The class given is cell-based, Swiss mouse. Particulars: mouse, 3T3 fibroblast cells, 3T3, MTT, read-out: cell viability; for viability at 24 h, 100 µg/mL: at 100 µg/mL; for viability at 24 h, 50 µg/mL: at 50 µg/mL. How it is done:
(§1) Immortal human keratinocyte cells (HaCaT) and […] (3T3) were obtained from Celltec, University of Barcelona. Dulbecco’s Modified Eagle Medium (DMEM) (4.5 g/L glucose) supplemented with 10% (v/v) FBS, 2 mM L-glutamine, 100 U/mL of penicillin, and 100 μg/mL of streptomycin was used to grow the cells in 75 cm^2 culture flasks at 37 °C with a continuous supply of CO2 at a 5% level. Once cells reached about 80% confluence, they were trypsinized with trypsin-EDTA.
(§2) Cells were first grown into the central 60 wells of a 96-well plate under 5% CO2 at 37 °C for 24 h. The DMEM was removed, and cells were exposed to different concentrations of each amphiphile diluted in DMEM supplemented with 5% FBS for 24 h. Finally, two different assays for quantification were used.
(§3) This method relies on the ability of living cells to reduce the yellow MTT reagent into insoluble purple formazan crystals. After the cells were incubated with the surfactants’ solutions, the medium was eliminated, and 100 μL of MTT in PBS (5 mg/mL) diluted 1:10 in culture medium (without phenol red and FBS) was added to each well and co-incubated for 3 h. Then, the medium was discarded, and DMSO was added into each well to solubilize the formazan crystals. Finally, the absorbance of the resulting solutions was measured at 550 nm using a microplate reader (Bio-Rad 550 Hercules, CA, USA).
(§4) The cytotoxic effects of these cationic surfactants were also evaluated using two different cell lines. The use of in vitro cytotoxicity tests is increasing daily, driven by the rise in human exposure to chemicals, as these tests are less costly and time-consuming than in vivo methods. The purpose of in vitro cytotoxicity tests is to detect the biocompatibility of these new surfactants. In this work, the cellular response upon incubation with the different surfactant series was evaluated in two representative skin cell lines: Swiss mouse fibroblasts (3T3 cell line) and human-derived keratinocytes (HaCaT cell line). The in vitro cytotoxicity was determined using the MTT as a measure of mitochondrial activity and the Neutral Red Uptake (NRU) related to lysosomal integrity, which are the most commonly used in vitro cytotoxicity endpoint methods. The cellular response at different concentrations (5, 25, 50, and 100 µM) was evaluated after 24 h of incubation.
Background: Tetrazolium assays rely on reduction of a dye to a coloured formazan, in cell work by metabolically active cells.

Details of series [2]: method as in PMID 36559096. Particulars: CO2 Headspace test, pass level 60%; cited from earlier work.
The nature of series [3]: Cytotoxicity, MTT assay. The format is cell-based. Particulars: human, HaCaT keratinocyte cells, read-out: cell viability; for viability at 24 h, 50 µg/mL: at 50 µg/mL. How it is done:
as §1, §2, §3
as §4, with “The use of in vitro cytotoxicity tests is increasing daily, driven by the rise in human exposure to chemicals, as these tests are less costly and time-consuming than in vivo methods. The purpose of in vitro cytotoxicity tests is to detect the biocompatibility of these new surfactants.” left out

Series [4] can be described thus: Cytotoxicity, Neutral Red Uptake (NRU) assay. The class given is cell-based, Swiss mouse. The note with it: mouse, 3T3 fibroblast cells, 3T3, NRU, across the full concentration range, read-out: cell viability. As to the method:
as §1, §2
(§5) The NRU assay is based on the accumulation of neutral red dye within the lysosomes of viable, intact cells. Once the cells were incubated with the surfactants, the DMEM was removed, and the NRU dye solution (50 μg/mL dissolved in the medium without FBS and phenol red) was added to each well, and the reaction was allowed for 2 h. The cells were washed with PBS, and 100 μL of an aqueous solution containing 50% absolute ethanol and 1% acetic acid was then added to each well to extract the incorporated dye. The microplates were then stirred for 5 min at 25 °C to facilitate dissolution. Finally, the absorbance of the resulting solutions was measured at λ = 550 nm using a Bio-Rad 550 microplate reader (Hercules, CA, USA).
as §4

For the next series, the system named is C. albicans biofilms. Put plainly: Eradication of mature biofilm, MTT method. The note with it: for concentration removing the total viability of the biofilm: 24 h treatment. The format is cell-based, Candida albicans. How it is done: (§6) Candida strains were cultured in SBA at 30 °C for 24 h. Yeast cells were then suspended in RPMI 1640 broth to a final concentration of 1.5 × 10^7 CFU/mL. For mature biofilm formation, 200 μL of these suspensions was transferred to each well of a 48-well microplate and incubated at 30 °C for 24 h. After incubation, the plate was washed with phosphate-buffered saline (PBS) to remove non-adherent cells. Then, surfactant solutions at various concentrations (200 μL), prepared in RPMI 1640, were added to the wells containing the mature biofilms. Plates were incubated again at 30 °C for 24 h. Following this treatment, the RPMI medium was removed, and wells were washed twice with PBS. To assess biofilm viability, 200 μL of MTT solution (3-(4,5-dimethylthiazol-2-yl)-2,5-diphenyltetrazolium bromide) were added to each well, and plates were incubated for 4 h. After incubation, the MTT solution was removed, and 200 μL of dimethyl sulfoxide (DMSO) were added to solubilize the formazan crystals. Absorbance at 540 nm (A540) was then measured using a microplate reader. Controls without the amino acid-based surfactants were included. All experiments were made in quadruplicate, and the results were averaged to ensure accuracy and reproducibility.
(§7) In this section, we have tested the ability of these cationic surfactants to eradicate mature fungal biofilms of C. albicans and C. tropicalis. Preformed biofilms of these two strains on 48-well plates were exposed to various concentrations of the synthesized surfactants, and the biofilm was not removed after the treatment was quantified using the MTT method (3-[4,5-dimethylthiazol-2-yl]-2,5 diphenyl tetrazolium bromide) (Figure 4). This method detects viable and metabolically active cells within the biofilm by measuring the reduction in MTT to formazan by active mitochondrial enzymes.

For another series, the system named is C. tropicalis biofilms. Put plainly: Eradication of mature biofilm, MTT method. The format is cell-based, Candida tropicalis. Particulars: 24 h treatment. How it is done:
as §6, §7

Series [5] concerns 3T3 cells. Briefly: Cytotoxicity, Neutral Red Uptake (NRU) assay. The class given is cell-based, Swiss mouse. The note with it: 3T3, NRU, 24 h; moderate toxicity (TANHC12, PANHC12), onset of dramatic toxicity (PNHC12). How it is done: as §1, §2, §5, §4
In series [6] the test system is 3T3 cells. Put plainly: Cytotoxicity, MTT assay. Particulars: Mus musculus, NIH3T3; 3T3, MTT, 24 h; read from viability curves. The class given is cell-based, Swiss mouse. As to the method:
as §1, §2, §3, §4

Broadly, the viability is a read-out of living cells in per cent, often relative to untreated cells. `CCCCCCCCCCCC(=O)NC(CCCNC(=N)N)C(=O)OC` (centres unmarked) [C12AM]: the viability at 24 h in “Cytotoxicity, MTT assay [1]” (across all concentrations up to 100 µg/mL) was greater than 85%; in series [4] it was 100%. For the same compound, the biodegradation result in series [2] is “over 60%”. Besides, the viability at 24 h, 50 µg/mL in “Cytotoxicity, MTT assay [3]” was roughly 90%.

With `CCCCCCCCCCCC(=O)NC(Cc1ccccc1)C(=O)NC(CCCNC(=N)N)C(=O)OC` (stereo not drawn) [C12PAM] (Lauroyl-Phe-Arg-OMe; configuration not given here), the viability at 24 h, 100 µg/mL in the series “Cytotoxicity, MTT assay [1]” is roughly 60%. Further, the “reduction of the metabolic activity of the biofilm” value in the series on C. albicans biofilms (highest concentration tested) is on record as “less than 65%”. Besides, the biodegradation result in series [2] is recorded as “over 60%”. Further, the viability at 24 h in series [4] lay in the range of 60 to 100%.

Consider `CCCCCCCCCCNC(=O)C(CCCNC(=N)N)NC(=O)C(N)Cc1ccccc1` (centres unmarked) [PANHC10], for which the “concentration removing the total viability of the biofilm” value in the series on C. tropicalis biofilms and in the series with C. albicans biofilms was “≈ 400 μM” throughout.

As to `CCCCCCCCCCCCNC(=O)C(CCCNC(=N)N)NC(=O)C(N)Cc1ccccc1` (centres unmarked) [PANHC12, phenylalanine-arginine dodecyl amide dihydrochloride], the “concentration removing the total viability of the biofilm” value in the series on C. tropicalis biofilms is on record as “≈ 50 μM”. In “Cytotoxicity, MTT assay [1]”, the viability at 24 h, 50 µg/mL is roughly 70% and the viability at 24 h, 100 µg/mL came to 5%. For the same compound, in the series with C. albicans biofilms, the “concentration removing the total viability of the biofilm” value is “≈ 50 μM”. In addition, the biodegradation entry in series [2] was “did not reach this pass level”. Also, in the series on 3T3 cells [5], the “concentration at which toxicity was seen” value is recorded as “around 50 µg/mL”.

Take `CCCCCCCCCCCCCCNC(=O)C(CCCNC(=N)N)NC(=O)C(N)Cc1ccccc1` (centres unmarked) [PANHC14]: the “concentration removing the total viability of the biofilm” value in the series with C. tropicalis biofilms and in the series on C. albicans biofilms was “≈ 50 μM” in each case.

As a reminder, the IC50 is the concentration at which inhibition is half-maximal. Regarding `CCCCCCCCCCCCNC(=O)C(N)Cc1ccccc1` (centres unmarked) [PNHC12, phenylalanine dodecyl amide hydrochloride], the viability at 24 h, 50 µg/mL in “Cytotoxicity, MTT assay [1]” was roughly 0%; in “Cytotoxicity, MTT assay [3]” it was 0%. This compound also displayed an IC50 in the series on 3T3 cells [6] of less than 50 µg/mL. The biodegradation entry in series [2] was “did not reach this pass level”. Besides, the “concentration at which toxicity was seen” value in the series with 3T3 cells [5] was 5000 ng/mL.

For the compound `CCCCCCCCCCNC(=O)C(CCCNC(=N)N)NC(=O)C(N)Cc1c[nH]c2ccccc12` (centres unmarked) [TANHC10], in the series “Cytotoxicity, MTT assay [3]” (across the concentration range (TANHCn series)), the viability at 24 h was roughly 80%.

Turning to `CCCCCCCCCCCCNC(=O)C(CCCNC(=N)N)NC(=O)C(N)Cc1c[nH]c2ccccc12` (centres unmarked) [TANHC12], in series [2], the biodegradation result is “did not reach this pass level”. Besides, the “concentration at which toxicity was seen” value in the series on 3T3 cells [5] is “around 50 µg/mL”.
